Measurements published in ChEMBL document CHEMBL1201862, “PubChem BioAssay data set” (2004).
Active and inactive are the calls of the source.

Legend:
[1] = general cell-killing toxicity readout – plate reader, dry powder samples, cytotoxicity control for PAX8 inhibitor project, dose response (AID 743021); assay type: functional, cell-based
Paired box protein Pax-8 = Paired box protein Pax-8 (Homo sapiens, UniProt Q06710); assay: PAX8 transcriptional activity inhibition in RMG-I – RMG-I cells, luciferase, cherry-pick, dose response (AID 687027); assay type: functional, cell-based;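 further: luciferase reporter driven by Pax8 target thyroperoxidase promoter measured by SteadyGlo luminescence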
[2] = OVCAR-3 cell viability loss – plate reader, dry powder samples, PAX8 inhibitor project, dose response (AID 743044); assay type: functional, cell-based
[3] = HIV-1 AD8 envelope cell-cell fusion blockers – cherry-pick, dose response (AID 652062); assay type: functional, cell-based;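 further: luciferase signal from cell-cell fusion driven by HIV-1 clade B AD8 Env; potency is for inhibitors of fusion seen as a drop in luminescence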
[4] = OVCAR8 cell viability loss – plate reader, dry powder samples, PAX8 project, dose response (AID 743197); assay type: functional, cell-based; conditions: OVCAR-8
[5] = viability loss in CEM21 cells – cell-based, CellTiter-Glo luminescence, cherry-picked, cytotoxicity control for viral fusion inhibitor project, dose response (AID 652042); assay type: functional;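 further: potency for signal decrease meaning cytotoxicity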
[6] = blockers of HIV-1 envelope-mediated cell-cell fusion – cherry-pick, dose response (AID 652057); assay type: functional, cell-based
Streptokinase A = target: T1, Streptokinase A (Streptococcus pyogenes serotype M1, UniProt P10520); assay: viability-normalized secreted streptokinase activity reduction – plasminogen activation absorbance, OD405, dose response (AID 1914); assay type: functional, Streptococcus pyogenes M1 GAS;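 further: secreted streptokinase activity via plasminogen activation per viability signal from cell pellet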
T1 sequence (P10520 whole entry): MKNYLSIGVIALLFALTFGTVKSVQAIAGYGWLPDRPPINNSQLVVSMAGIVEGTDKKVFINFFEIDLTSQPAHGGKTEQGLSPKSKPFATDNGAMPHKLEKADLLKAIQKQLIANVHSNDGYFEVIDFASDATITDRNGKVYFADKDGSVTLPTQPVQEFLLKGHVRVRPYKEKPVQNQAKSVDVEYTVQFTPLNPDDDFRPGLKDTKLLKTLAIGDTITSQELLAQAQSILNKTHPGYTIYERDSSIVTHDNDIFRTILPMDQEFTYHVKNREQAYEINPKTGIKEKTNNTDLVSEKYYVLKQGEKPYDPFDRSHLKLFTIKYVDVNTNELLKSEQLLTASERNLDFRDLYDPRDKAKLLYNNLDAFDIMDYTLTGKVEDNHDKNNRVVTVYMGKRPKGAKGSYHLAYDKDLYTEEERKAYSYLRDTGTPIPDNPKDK

Streptococcus = assay: GAS UMAA2166 growth inhibition – luminescence, BacTiterGlo, counter-screen for streptokinase expression inhibitor project, dose response (AID 1915); assay type: functional, organism-based;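 further: potency for reduction of bacterial viability or growth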
[7] = target: T2, Sentrin-specific protease 8 (Homo sapiens, UniProt Q96LD8); assay type: functional
T2 sequence (Q96LD8 whole entry): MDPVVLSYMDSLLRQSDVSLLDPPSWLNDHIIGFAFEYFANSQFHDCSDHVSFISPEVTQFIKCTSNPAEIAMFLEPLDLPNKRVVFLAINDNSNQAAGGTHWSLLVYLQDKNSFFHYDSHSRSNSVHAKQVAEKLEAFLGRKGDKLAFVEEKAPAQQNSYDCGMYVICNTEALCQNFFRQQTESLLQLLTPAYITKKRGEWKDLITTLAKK

[8] = tested on: Streptococcus sp. 'group A'; assay: Streptococcus pyogenes SK(-)GAS viability under kanamycin – luminescence, BacTiterGlo, confirmation, counter-screen for streptokinase expression inhibitor project, dose response (AID 1900); assay type: functional, organism-based
[9] = target: T2, Sentrin-specific protease 8; assay type: functional; remark: listed apart in the source
[10] = A cytotoxicity screen of small molecule inhibitors of the PhoP region in Salmonella typhi identified in the primary screen. [Related pubchem assays: 1850, 1864, 1985 ]; assay type: functional
[11] = target: T3, Heat shock factor protein 1 (Mus musculus, UniProt P38532); assay: enhancement of HSF1-driven luciferase signal – cell-based, NIH3T3, luminescence, dose retest, confirmation (AID 435004); assay type: functional;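 further: stress induced by proteasome inhibitor MG132 added 30 min after compound; luciferase reporter driven by HSF1 response element in NIH3T3 cells; actives raise luminescence as potentiators of the MG132 stress response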
T3 sequence (P38532 whole entry): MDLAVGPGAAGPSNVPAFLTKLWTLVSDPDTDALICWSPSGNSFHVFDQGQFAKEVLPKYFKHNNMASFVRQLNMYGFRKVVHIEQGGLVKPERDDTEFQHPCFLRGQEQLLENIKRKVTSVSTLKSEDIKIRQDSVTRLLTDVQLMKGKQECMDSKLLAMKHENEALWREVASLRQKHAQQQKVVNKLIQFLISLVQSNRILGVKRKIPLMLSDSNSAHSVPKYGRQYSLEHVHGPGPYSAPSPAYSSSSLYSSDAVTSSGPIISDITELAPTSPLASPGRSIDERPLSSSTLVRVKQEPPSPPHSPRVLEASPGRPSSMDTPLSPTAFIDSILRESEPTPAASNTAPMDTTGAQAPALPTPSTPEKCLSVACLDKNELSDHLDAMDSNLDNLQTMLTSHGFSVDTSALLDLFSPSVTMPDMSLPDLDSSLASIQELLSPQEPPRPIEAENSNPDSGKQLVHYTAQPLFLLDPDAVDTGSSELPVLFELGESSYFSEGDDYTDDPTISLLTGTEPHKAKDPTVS

[12] = target: T4, Rac GTPase-activating protein 1 (Homo sapiens, UniProt Q9H0H5); assay: blockers of MgcRacGAP-driven Rac1 GTP hydrolysis – biochemical, ADP Hunter fluorescence, primary and confirmatory, confirmation (AID 624330); assay type: functional
T4 sequence (Q9H0H5 whole entry): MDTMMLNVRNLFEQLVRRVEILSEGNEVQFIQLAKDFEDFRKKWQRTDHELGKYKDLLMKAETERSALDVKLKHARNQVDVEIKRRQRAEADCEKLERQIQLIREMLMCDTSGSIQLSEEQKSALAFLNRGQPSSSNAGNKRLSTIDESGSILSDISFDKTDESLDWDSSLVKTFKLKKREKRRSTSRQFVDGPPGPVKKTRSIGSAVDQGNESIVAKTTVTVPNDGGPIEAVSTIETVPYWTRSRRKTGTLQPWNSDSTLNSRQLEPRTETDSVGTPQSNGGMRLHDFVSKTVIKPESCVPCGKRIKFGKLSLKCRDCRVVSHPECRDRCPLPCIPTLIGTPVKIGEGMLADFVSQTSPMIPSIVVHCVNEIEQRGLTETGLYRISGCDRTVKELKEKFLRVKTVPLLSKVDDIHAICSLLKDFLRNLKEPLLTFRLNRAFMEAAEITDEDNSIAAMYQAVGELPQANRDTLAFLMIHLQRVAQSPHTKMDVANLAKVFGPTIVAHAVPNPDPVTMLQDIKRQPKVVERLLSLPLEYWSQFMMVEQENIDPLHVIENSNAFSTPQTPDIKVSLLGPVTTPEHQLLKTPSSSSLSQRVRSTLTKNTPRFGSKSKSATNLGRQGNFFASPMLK

[13] = viability loss in HeLa cells – cytotoxicity control for MgcRacGAP inhibitor project, dose response (AID 624300); assay type: functional

Paired box protein Pax-8, sequence (Q06710 whole entry): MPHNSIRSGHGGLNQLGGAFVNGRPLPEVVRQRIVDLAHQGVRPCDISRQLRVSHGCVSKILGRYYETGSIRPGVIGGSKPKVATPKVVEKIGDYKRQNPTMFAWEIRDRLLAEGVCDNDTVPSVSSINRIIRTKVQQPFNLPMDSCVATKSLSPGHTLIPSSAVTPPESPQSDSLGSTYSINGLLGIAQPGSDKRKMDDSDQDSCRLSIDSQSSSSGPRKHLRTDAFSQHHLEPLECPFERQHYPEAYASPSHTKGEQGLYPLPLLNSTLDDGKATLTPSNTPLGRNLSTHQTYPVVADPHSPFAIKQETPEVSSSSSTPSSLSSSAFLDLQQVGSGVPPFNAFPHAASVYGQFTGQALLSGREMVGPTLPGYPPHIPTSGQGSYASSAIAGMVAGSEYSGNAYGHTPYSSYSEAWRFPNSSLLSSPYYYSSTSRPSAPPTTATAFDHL

Row | Compound | AC50 [1] | AC50 (Paired box protein Pax-8) | AC50 [3] | AC50 [5] | AC50 [6] | further results
1 | N=C(N)N/N=C(\c1ccc(F)cc1)c1ccc(C(F)(F)F)cc1 | 39.9 µM (active) | 3.32 µM (active) | – | – | – | –
2 | O=C1CN(S(=O)(=O)Cc2ccccc2)C[C@H]2[C@H](c3ccc(C#Cc4ccc(F)cc4)cc3)[C@H](CO)N12 | 56 µM (active) | 8.12 µM (active) | – | – | – | AC50 [2]: 32.6 µM (active)
3 | COc1cccc(S(=O)(=O)N(C)C[C@@H]2OCc3ccccc3-c3c(n(C)c4ccccc34)C(=O)N([C@@H](C)CO)C[C@@H]2C)c1 | – | 5.8 µM (active) | 19.2 µM (active) | 34.8 µM (active) | 16.5 µM (active) | AC50 [4]: > 70 µM (inactive)
4 | COc1cccc(S(=O)(=O)N2CC3(CN(C(=O)Nc4cccc(F)c4)[C@@H](CO)c4[nH]c5cc(OC)ccc5c43)C2)c1 | – | – | 27.1 µM (active) | 26.1 µM (active) | 0.986 µM (active) | –
5 | O=[N+]([O-])c1ccc(/C=[N+](\[O-])CCO)o1 | – | – | – | – | – | EC50 (Streptokinase A): > 150 µM (not active); EC50 (Streptococcus): 9.91 µM (active); IC50 [7]: 16.7 µM (active); EC50 [8]: 3.97 µM (active); IC50 [9]: 43.4 µM (active); EC50 [10]: > 50 µM (active)
6 | O=S(=O)(c1ccc(Cl)c(NC(=S)N/N=C/c2ccc(O)cc2)c1)N1CCOCC1 | – | – | – | – | – | EC50 [11]: > 260 µM (inactive); IC50 [12]: 47.6 µM (active); CC50 [13]: 45.7 µM (active)
